Laboratory results published in US20260102380A1, “Synthesis and Characterization of Cyclic Hydrocarbon Esters of Everolimus” (BIOTRONIK AG, priority 2022, published 2026).
“And” between values parts separate entries of the source, which are not always exact repeats. Equal values may be shown once. Read-outs that look alike come from different tables or passages of the source.

Experiments:
[1] = Elution study on porcine coronary artery; details: for Percent of Drug Eluted Over Time: samples 1 and 2
Method: (§1) To examine the effects of certain formulations of the present invention on porcine coronary artery samples, the samples were each prepared as follows:
(§2) Elution Media Preparation: Normal saline was prepared by weighing 4.5 grams of sodium chloride into a 500 mL Pyrex® bottle. 495.5 grams HPLC water was added to the 500 ml bottle. The bottle was then capped and vigorously shaken. 25% ethanol/saline elution media was prepared by weighing 25.0 grams of ethanol (200 proof) into a 100 mL Pyrex® bottle. 75.0 grams of normal saline was added to the 100 ml bottle containing ethanol. The bottle was capped and vigorously shaken.
(§3) Elution Method: Porcine coronary arterial vessels were obtained and dissected from hearts obtained from the butcher shop. Coronary arteries were flash frozen with dry ice then stored at −80° C. When ready for testing, arteries were removed from the freezer and allowed to thaw at room temperature. Any fat and muscle tissue were carefully removed using scissors and tweezers. Vessels were rinsed several times with normal saline containing 0.05% sodium azide.
(§4) Vessels were then cut into 1 cm sections. 5 μL of formulation (approximately 125 μg of drug) was carefully added onto the outer part of the tissue using a 10 μL Hamilton® syringe. Ethanol was allowed to evaporate at room temperature for 15-20 minutes.
(§5) Tissue was then placed into a 7 mL glass vial. 2 mL elution media, previously warmed to 37° C., was added carefully to each vial using an Eppendorf® pipette. Each vial was capped and placed in a 37° C. incubator and gently shaken at 100 spm (strokes per minute).
(§6) At certain time points, elution media was removed and fresh 2 mL media (at 37° C.) was slowly added to the vial.
(§7) Drug formulations in ethanol were applied (approximately 125 μg) onto previously frozen “butcher shop” porcine coronary arterial vessel and allowed to dry after 15-20 minutes.

[2] = pig
Method: as §1, §2, §3, §4, §5, §6, §7

SMILES | Percent of Drug Eluted Over Time ([1]; 0.5 hours, approx. 125 μg drug on 1 cm vessel section, 25% ethanol/saline, 37° C.) | Percent of Drug Eluted Over Time ([1]; 1 hour, approx. 125 μg drug on 1 cm vessel section, 25% ethanol/saline, 37° C.) | Percent of Drug Eluted Over Time ([1]; 2 hours, approx. 125 μg drug on 1 cm vessel section, 25% ethanol/saline, 37° C.) | Percent of Drug Eluted Over Time ([1]; 3 hours, approx. 125 μg drug on 1 cm vessel section, 25% ethanol/saline, 37° C.) | Percent of Drug Eluted Over Time ([1]; 23 hours, approx. 125 μg drug on 1 cm vessel section, 25% ethanol/saline, 37° C.) | Percent of Drug Eluted Over Time ([1]; Extract (after extraction, following 23 hours of elution)) | Elution behavior from vessel tissue (in words) ([1]; porcine coronary arterial tissue, 25% ethanol/saline, 37° C.) | Elution behavior from vessel tissue (in words) [2] | Time within which most of the drug eluted off the tissue [2] [h]
CO[C@H]1C[C@@H]2CC[C@@H](C)[C@@](O)(O2)C(=O)C(=O)N2CCCC[C@H]2C(=O)O[C@H]([C@H](C)C[C@@H]2CC[C@@H](OCCO)[C@H](OC)C2)CC(=O)[C@H](C)/C=C(\C)[C@@H](O)[C@@H](OC)C(=O)[C@H](C)C[C@H](C)/C=C/C=C/C=C/1C [Everolimus] | 77% and 71% | 86% and 76% | 87% and 79% | 88% and 80% | 89% and 80% | 89% and 81% | eluting significantly faster than CRC-023 | – | –
CO[C@H]1C[C@@H]2CC[C@@H](C)[C@@](O)(O2)C(=O)C(=O)N2CCCC[C@H]2C(=O)O[C@H]([C@H](C)C[C@@H]2CC[C@@H](O)[C@H](OC)C2)CC(=O)[C@H](C)/C=C(\C)[C@@H](O)[C@@H](OC)C(=O)[C@H](C)C[C@H](C)/C=C/C=C/C=C/1C [Sirolimus] | – | – | – | – | – | – | – | eluting significantly faster than CRC-023 | ≤ 2
